Data taken from ChEMBL document CHEMBL1201862, “PubChem BioAssay data set” (2004).
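All cell lines were grown in 96-well plates and treated with compound for 48 hours. GI50 is the concentration that inhibits growth by half.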 Calls of active or inactive are those of the source. Rule as the data show it: active = GI50 up to about 1.1 µM and inactive = higher.

Columns and labels:
Assay in all cases: NCI tumour cell line growth inhibition, 48 h
BT-549 = tested on: BT-549
Hs-578T = tested on: Hs-578T
KM-20L2 = tested on: KM-20L2
DMS-273 = tested on: DMS-273
M19-MEL = tested on: M19-MEL
DLD-1 = tested on: DLD-1
LXFL 529 = tested on: LXFL 529
DMS-114 = tested on: DMS-114

For `NS(=O)(=O)c1ccc(/N=N/c2ncccc2O)cc1`, the GI50 (BT-549) was > 100 µM (inactive) and the GI50 (Hs-578T) was > 100 µM (inactive).

In the case of `Cc1cc(=O)oc2cc(O)c(CN(C)CC(=O)O)cc12`, the GI50 (BT-549) is reported as > 100 µM (inactive) and the GI50 (Hs-578T) is reported as > 100 µM (inactive).

For `CC(=O)ON(C(C)=O)c1ccc(-c2nc3ccccc3s2)cc1`, the GI50 (BT-549) was 37.6 µM (inactive) and the GI50 (Hs-578T) was 21.2 µM (inactive).

In the case of `CN1CCN(CCCN2c3ccccc3Sc3ccc(C(F)(F)F)cc32)CC1`, the GI50 (KM-20L2) is reported as 2.27 µM (inactive), the GI50 (BT-549) is reported as 14.5 µM (inactive) and the GI50 (DMS-273) is reported as 6.65 µM (inactive). The GI50 (Hs-578T) was 4.35 µM (inactive), the GI50 (M19-MEL) was 1.87 µM (inactive) and the GI50 (DLD-1) was 13.8 µM (inactive). The GI50 (LXFL 529) was 10.2 µM (inactive) and the GI50 (DMS-114) was 10 µM (inactive).

In the case of `CN(C)Cc1nsc(N(C)C)n1`, the GI50 (BT-549) is reported as > 100 µM (inactive) and the GI50 (Hs-578T) is reported as > 100 µM (inactive).

`CC1C(=O)C(C)C(c2ccccc2)N(N=O)C1c1ccccc1` (stereo unspecified) was tested, and the GI50 (KM-20L2) was > 1000 µM (inactive), the GI50 (BT-549) was > 100 µM (inactive) and the GI50 (DMS-273) was > 798 µM (inactive). For the same compound, the GI50 (Hs-578T) was 46.7 µM (inactive), the GI50 (M19-MEL) was > 100 µM (inactive) and the GI50 (DLD-1) was > 100 µM (inactive). For the same compound, the GI50 (LXFL 529) was > 1000 µM (inactive).

In the case of `COC1(OC)c2ccccc2C2(O)c3ccccc3C(=O)C12` (stereo unspecified), the GI50 (KM-20L2) is reported as 40.6 µM (inactive), the GI50 (DMS-273) is reported as 25.2 µM (inactive) and the GI50 (M19-MEL) is reported as 34.7 µM (inactive). The GI50 (LXFL 529) was 20.7 µM (inactive) and the GI50 (DMS-114) was 35.6 µM (inactive).

For `CC1=NN2C(c3ccc(C)cc3)=CSC2=NC(C)(C)C1`, the GI50 (KM-20L2) was > 100 µM (inactive), the GI50 (M19-MEL) was > 100 µM (inactive) and the GI50 (DLD-1) was > 100 µM (inactive). For the same compound, the GI50 (LXFL 529) was > 100 µM (inactive) and the GI50 (DMS-114) was 71 µM (inactive).

With `CCN(C(C)=N)c1ccccc1` the GI50 (KM-20L2) was > 100 µM (inactive), the GI50 (M19-MEL) was 95.5 µM (inactive) and the GI50 (DLD-1) was > 100 µM (inactive). The GI50 (LXFL 529) was 75.9 µM (inactive) and the GI50 (DMS-114) was 36.5 µM (inactive).

With `Cc1ccc(S[C@@H](C)[C@@](O)(CF)CN(Cc2ccccc2)C(=O)C(F)(F)F)cc1` the GI50 (BT-549) was 19.6 µM (inactive) and the GI50 (Hs-578T) was 18.3 µM (inactive).

For `COc1ccc2nc(-c3ccccc3)cc(OCC(=O)O)c2c1`, the GI50 (BT-549) was > 100 µM (inactive) and the GI50 (Hs-578T) was > 100 µM (inactive).

In the case of `O=C1N[C@@H](c2c[nH]c3ccc(Br)cc23)C(=O)N[C@H]1c1c[nH]c2ccc(Br)cc12`, the GI50 (BT-549) is reported as 13.6 µM (inactive) and the GI50 (Hs-578T) is reported as 11 µM (inactive).

In the case of `O=C(Nc1ccccc1)c1ccc(Cl)c([N+](=O)[O-])c1`, the GI50 (KM-20L2) is reported as 13.5 µM (inactive), the GI50 (DMS-273) is reported as 3.45 µM (inactive) and the GI50 (M19-MEL) is reported as 12.5 µM (inactive). The GI50 (DLD-1) was 23.4 µM (inactive), the GI50 (LXFL 529) was 3.78 µM (inactive) and the GI50 (DMS-114) was 16.6 µM (inactive).

For `COC(=O)c1nsc(OC)c1Cl`, the GI50 (BT-549) was > 100 µM (inactive) and the GI50 (Hs-578T) was > 100 µM (inactive).

In the case of `CCC1OC2C(CC=C(C)C)=C3OC(C)(O)C(C)(CC)C(=O)C3=C3OC(=O)C=C1C32` (stereo unspecified), the GI50 (BT-549) is reported as 15.1 µM (inactive).

In the case of `C=C(C)C1CCC2=CC(CC3(C)OC3C3=CC(C(=O)OC)=C(C1)O3)OC2=O` (stereo unspecified), the GI50 (BT-549) is reported as > 100 µM (inactive).

In the case of `NCc1c(C(N)=O)ncn1Cc1ccccc1`, the GI50 (KM-20L2) is reported as > 100 µM (inactive), the GI50 (DMS-273) is reported as > 100 µM (inactive) and the GI50 (M19-MEL) is reported as > 100 µM (inactive). The GI50 (LXFL 529) was > 100 µM (inactive) and the GI50 (DMS-114) was > 100 µM (inactive).

With `CCCCCCCC/C=C\CCCCCCC/C=C1\C[C@](/C=C/C(=O)OC)(CO)OC1=O` the GI50 (BT-549) was 2.33 µM (inactive) and the GI50 (Hs-578T) was 1.25 µM (inactive).

In the case of `CCCCc1ccc(Nc2nc3c(ncn3COCCBr)c(=O)[nH]2)cc1`, the GI50 (BT-549) is reported as > 100 µM (inactive) and the GI50 (Hs-578T) is reported as > 100 µM (inactive).

In the case of `CC(=O)NNc1nc(C)c(C(/C=C/c2ccc(Cl)cc2)=N/NC(=O)C[N+](C)(C)C)s1`, the GI50 (KM-20L2) is reported as > 100 µM (inactive), the GI50 (DMS-273) is reported as > 100 µM (inactive) and the GI50 (M19-MEL) is reported as > 100 µM (inactive). The GI50 (DLD-1) was > 100 µM (inactive), the GI50 (LXFL 529) was > 100 µM (inactive) and the GI50 (DMS-114) was > 100 µM (inactive).

In the case of `NC(=O)c1ccc(NCC2=CC(=O)C=CC2=O)cc1`, the GI50 (BT-549) is reported as 15.5 µM (inactive) and the GI50 (Hs-578T) is reported as 30.3 µM (inactive).

With `C=CCn1c(-c2ccc([N+](=O)[O-])cc2)csc1=N` the GI50 (BT-549) was 92.5 µM (inactive) and the GI50 (Hs-578T) was > 100 µM (inactive).

In the case of `Cc1ccc(S(=O)(=O)N2CCCSCCSCCCSCC2)cc1`, the GI50 (BT-549) is reported as > 100 µM (inactive).

In the case of `CCOC(=O)NC(=O)c1cn(CCN2CCN(C(=O)CCCCCCCCCCNc3ncnc4[nH]cnc34)CC2)c(=O)[nH]c1=O`, the GI50 (KM-20L2) is reported as > 100 µM (inactive), the GI50 (DMS-273) is reported as > 100 µM (inactive) and the GI50 (M19-MEL) is reported as > 100 µM (inactive). For the same compound, the GI50 (DLD-1) was > 100 µM (inactive) and the GI50 (LXFL 529) was 39.8 µM (inactive).

For `COc1cc(C2OC(N)=C(C#N)C3=C2C(C)CCC3)cc(OC)c1OC` (stereo unspecified), the GI50 (BT-549) was > 100 µM (inactive) and the GI50 (Hs-578T) was 55.1 µM (inactive).

`CO[C@@H]1C[C@H]2[C@@H]3CC[C@H]([C@H](C)COC(C)=O)[C@@]3(C)CC[C@@H]2[C@@]2(C)CC[C@H]3C[C@]312` was tested, and the GI50 (Hs-578T) was > 100 µM (inactive).

`C=C1C(=O)OC2/C=C(\C)C(=O)CC3OC(C)(C)OC3(C)CC(OC(=O)/C(C)=C/C)C12` (stereo unspecified) was tested, and the GI50 (BT-549) was 10.4 µM (inactive) and the GI50 (Hs-578T) was 28.9 µM (inactive).

`Cc1nc(-[n+]2nc(-c3ccncc3)nn2-c2ccccc2)sc1C` was tested, and the GI50 (BT-549) was 17.1 µM (inactive) and the GI50 (Hs-578T) was 44.4 µM (inactive).

In the case of `CCCc1c(OC)c(=O)c2c(OC)cc(OC)c3c4c(OC)cc(OC)c5c(=O)c(OC)c(CCC)c(c1c23)c54`, the GI50 (BT-549) is reported as 15 µM (inactive).

In the case of `COc1ccc2c(c1)SC1=Nc3sc4cc(OC)ccc4[n+]3CN12`, the GI50 (BT-549) is reported as 66.8 µM (inactive) and the GI50 (Hs-578T) is reported as 44.8 µM (inactive).

With `CCOC(=O)c1ccc(NC(NC(=O)CC)(C(F)(F)F)C(F)(F)F)cc1` the GI50 (BT-549) was > 100 µM (inactive) and the GI50 (Hs-578T) was > 100 µM (inactive).
